Measured values as given in ChEMBL document CHEMBL3407421, “Design, synthesis, X-ray crystallographic analysis, and biological evaluation of thiazole derivatives as potent and selective inhibitors of human dihydroorotate dehydrogenase” (J Med Chem, 2015).
pIC50: −log10 of the molar value.

Key:
[1] = biological target: Dihydroorotate dehydrogenase (quinone), mitochondrial (Homo sapiens, UniProt Q02127)
Description: Inhibition of human DHODH using dihydroorotate substrate by DCIP assay

[2] = biological target: T1, Dihydroorotate dehydrogenase (Plasmodium falciparum, UniProt Q54A96); test: Inhibition of Plasmodium falciparum DHODH using dihydroorotate substrate by DCIP assay
T1 sequence (Q54A96 whole entry): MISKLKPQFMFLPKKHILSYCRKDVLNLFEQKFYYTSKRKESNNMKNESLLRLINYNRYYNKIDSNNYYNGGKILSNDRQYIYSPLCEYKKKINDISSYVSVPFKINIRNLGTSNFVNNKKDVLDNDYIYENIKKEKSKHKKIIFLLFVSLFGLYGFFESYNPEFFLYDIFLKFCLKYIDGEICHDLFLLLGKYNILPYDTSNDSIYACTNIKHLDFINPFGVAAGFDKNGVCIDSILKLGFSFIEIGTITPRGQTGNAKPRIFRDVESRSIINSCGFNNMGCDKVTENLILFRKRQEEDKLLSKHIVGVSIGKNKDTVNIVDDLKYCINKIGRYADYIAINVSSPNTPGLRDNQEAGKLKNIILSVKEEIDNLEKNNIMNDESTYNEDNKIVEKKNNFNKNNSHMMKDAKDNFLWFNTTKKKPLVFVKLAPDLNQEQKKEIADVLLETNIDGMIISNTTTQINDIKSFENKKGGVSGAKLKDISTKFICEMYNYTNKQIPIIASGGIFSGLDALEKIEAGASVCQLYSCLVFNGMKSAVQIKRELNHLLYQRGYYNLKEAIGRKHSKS

[3] = Retention time of the compound; assay type: physicochemical
[4] = tested on: Rattus norvegicus; test: Toxicity in ip dosed bovine type-2 collagen-induced Wistar rat arthritic model assessed as change in body weight administered as qd for 28 days starting day after immunization; assay type: organism-based; details: in vivo, 672 h

Dihydroorotate dehydrogenase (quinone), mitochondrial, sequence (Q02127 whole entry): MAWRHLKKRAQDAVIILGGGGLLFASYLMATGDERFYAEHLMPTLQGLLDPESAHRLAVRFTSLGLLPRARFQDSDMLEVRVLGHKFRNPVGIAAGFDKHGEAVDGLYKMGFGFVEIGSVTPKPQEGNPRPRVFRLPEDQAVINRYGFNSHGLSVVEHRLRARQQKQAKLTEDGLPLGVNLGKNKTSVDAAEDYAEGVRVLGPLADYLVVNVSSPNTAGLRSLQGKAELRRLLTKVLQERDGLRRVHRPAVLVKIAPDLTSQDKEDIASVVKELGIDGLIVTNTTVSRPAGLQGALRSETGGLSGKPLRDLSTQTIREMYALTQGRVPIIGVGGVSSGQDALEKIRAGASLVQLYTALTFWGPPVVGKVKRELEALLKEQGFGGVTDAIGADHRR

Compound	pIC50 [1]	pIC50 [2]	Retention_time [3]	Activity [4]
CC(=O)c1sc(Nc2ccccc2)nc1C	< 5.00	< 5.00	9.94 min	
CCOC(=O)c1sc(Nc2ccc(Br)cc2)nc1C		5.61	17.56 min	
CC(=O)c1sc(Nc2ccc(C)c(Cl)c2)nc1C	5.40	6.20	14.38 min	
CC(=O)c1sc(Nc2ccc(Br)cc2)nc1C	< 5.00	< 5.00	13.52 min	
CC(=O)c1sc(Nc2ccc(C(C)(C)C)cc2)nc1C	5.44	< 5.00	14.61 min	
CC(=O)c1sc(Nc2ccc(C)c(C)c2)nc1C	5.41	5.83	12.41 min	
CC(=O)c1sc(Nc2ccc(C)c(F)c2)nc1C	< 5.00	< 5.00	5.82 min	
CC(=O)c1sc(Nc2ccc(Cl)c(C(F)(F)F)c2)nc1C	5.63	5.37	16.17 min	
CC(=O)c1sc(Nc2ccc(Br)c(C(F)(F)F)c2)nc1C	5.72	< 5.00	16.48 min	
CC(=O)c1sc(Nc2ccc3ccccc3c2)nc1C	6.25	6.06	13.39 min	
CC(=O)c1sc(Nc2ccc3cc4ccccc4cc3c2)nc1C	< 5.00	< 5.00	16.95 min	
CCOC(=O)c1sc(Nc2ccc(C)c(C)c2)nc1C		< 5.00	16.56 min	
CCOC(=O)c1sc(Nc2ccc(C)c(F)c2)nc1C		< 5.00	8.14 min	
CCOC(=O)c1sc(Nc2ccc(C)c(Cl)c2)nc1C		< 5.00	18.44 min	
CCOC(=O)c1sc(Nc2ccc3ccccc3c2)nc1C		< 5.00	9.01 min	
CCOC(=O)c1sc(Nc2ccc(C)c(C)c2)nc1N		< 5.00	9.57 min	
CCOC(=O)c1sc(Nc2ccc(Cl)c(C(F)(F)F)c2)nc1N	< 5.00	< 5.00	7.1 min	
CCOC(=O)c1sc(Nc2ccc(C)c(C)c2)nc1NC(=O)C1CC1	< 5.00	< 5.00	7.61 min	
CCOC(=O)c1sc(Nc2ccc(Cl)c(C(F)(F)F)c2)nc1NC(=O)C1CC1		< 5.00	7.75 min	
CCOC(=O)c1sc(Nc2ccc(C)c(C)c2)nc1NC(=O)c1ccccc1		< 5.00	7.51 min	
CCOC(=O)c1sc(Nc2ccc(Cl)c(C(F)(F)F)c2)nc1NC(=O)c1ccccc1	< 5.00	< 5.00	8.06 min	
CCOC(=O)c1sc(Nc2ccc(C)c(C)c2)nc1C1CC1		< 5.00	10.18 min	
CCOC(=O)c1sc(Nc2ccc(C)c(F)c2)nc1C1CC1		< 5.00	9.96 min	
CCOC(=O)c1sc(Nc2ccc(C)c(Cl)c2)nc1C1CC1		< 5.00	11.22 min	
CCOC(=O)c1sc(Nc2ccc(C)c(C)c2)nc1C(C)(C)C		< 5.00	12.16 min	
CCOC(=O)c1sc(Nc2ccc(C)c(F)c2)nc1C(C)(C)C		< 5.00	11.92 min	
CCOC(=O)c1sc(Nc2ccc(C)c(Cl)c2)nc1C(C)(C)C		< 5.00	13.12 min	

Compound	pIC50 [1]	pIC50 [2]	Retention_time [3]	Activity [4]
CCOC(=O)c1sc(Nc2ccc(C)c(C)c2)nc1-c1ccccc1		< 5.00	9.84 min	
CCOC(=O)c1sc(Nc2ccc(C)c(F)c2)nc1-c1ccccc1		< 5.00	9.56 min	
CCOC(=O)c1sc(Nc2ccc(C)c(Cl)c2)nc1-c1ccccc1		< 5.00	10.7 min	
CCOC(=O)c1sc(Nc2ccccc2)nc1-c1ccccc1		< 5.00	7.96 min	
CCOC(=O)c1sc(Nc2ccc(OC)cc2)nc1-c1ccccc1		< 5.00	7.54 min	
CCOC(=O)c1sc(Nc2ccc(Cl)cc2)nc1-c1ccccc1		< 5.00	9.69 min	
CCOC(=O)c1sc(Nc2ccc(C(F)(F)F)cc2)nc1-c1ccccc1		< 5.00	9.86 min	
CCOC(=O)c1sc(Nc2ccc(C(C)(C)C)cc2)nc1-c1ccccc1		< 5.00	21.11 min	
CCOC(=O)c1sc(Nc2ccc(Cl)c(C(F)(F)F)c2)nc1-c1ccccc1		< 5.00	11.06 min	
CCOC(=O)c1sc(Nc2ccc(Br)c(C(F)(F)F)c2)nc1-c1ccccc1		< 5.00	11.33 min	
CCOC(=O)c1sc(Nc2ccc(Cl)c(Cl)c2)nc1-c1ccccc1		< 5.00	11.11 min	
CCOC(=O)c1sc(Nc2cc(Cl)cc(Cl)c2)nc1-c1ccccc1		< 5.00	11.83 min	
CCOC(=O)c1sc(Nc2ccc(Br)cc2C)nc1-c1ccccc1	< 5.00	< 5.00	10.27 min	
CCOC(=O)c1sc(Nc2ccc3c(c2)CCC3)nc1-c1ccccc1		< 5.00	10.42 min	Non-toxic
CCOC(=O)c1sc(Nc2ccc3c(c2)OCO3)nc1-c1ccccc1		< 5.00	7.28 min	
CCOC(=O)c1sc(Nc2ccc3c(c2)CCCC3)nc1-c1ccccc1		< 5.00	11.36 min	
CCOC(=O)c1sc(Nc2ccc3ccccc3c2)nc1-c1ccccc1		< 5.00		
CCOC(=O)c1sc(Nc2ccc3cc4ccccc4cc3c2)nc1-c1ccccc1		< 5.00	12.09 min	
CCOC(=O)c1sc(Nc2ccc(-c3ccccc3)cc2)nc1-c1ccccc1	< 5.00	< 5.00	10.81 min	
CCOC(=O)c1sc(Nc2ccc(-c3cccc(OC)c3)cc2)nc1-c1ccccc1	< 5.00	< 5.00	10.45 min	
CCOC(=O)c1sc(Nc2ccc(-c3ccccc3)cc2F)nc1-c1ccccc1	< 5.00	< 5.00	11.33 min	
CCOC(=O)c1sc(Nc2ccc(-c3cccc(OC)c3)cc2F)nc1-c1ccccc1	< 5.00	< 5.00	10.96 min	
CCOC(=O)c1sc(Nc2c(F)cc(-c3cccc(OC)c3)cc2F)nc1-c1ccccc1		< 5.00	9.51 min	
CCOC(=O)c1sc(Nc2ccc(Oc3ccccc3)c(Cl)c2)nc1-c1ccccc1	< 5.00	< 5.00	11.24 min	
CCOC(=O)c1sc(Nc2ccc(OCc3ccccc3)c(Cl)c2)nc1-c1ccccc1	< 5.00	< 5.00	10.92 min	
CCOC(=O)c1sc(Nc2ccc(OCc3c(F)cccc3Cl)c(Cl)c2)nc1-c1ccccc1	< 5.00	< 5.00	9.95 min	
CN(Cc1cnc2nc(N)nc(N)c2n1)c1ccc(C(=O)N[C@@H](CCC(=O)O)C(=O)O)cc1 [METHOTREXATE]				Non-toxic
